Structures can show the parent of a compound that is named as a salt.
Columns and labels:
[1] = test system: CYP-induced visceral pain; assay: Chronic administration in CYP-induced visceral pain in rats (Von Frey withdrawal threshold); format: in vivo, rat; details: 40-80 mg/kg p.o., systemic
Description: Cyclophosphamide, 75 mg/kg i.p. for 3 times, every 3rd day, was dissolved in distilled water and administered to animals by i.p. route (volume 5 mL/kg). Appropriate weight of Compd. 1 or Compd. 2 was dissolved in saline, all doses of test compounds were administered by oral gavage (volume 2 mL/kg).
On the day of the experiment, each rat was placed individually in a clear plastic testing box with a grid floor and allowed to acclimatize for at least 10 min. Visceral sensitivity in response to mechanical stimuli was determined using Von Frey monofilaments (1-2-4-8-15-26-60-100 g) applied in the lower abdominal area (close to the urinary bladder) and on both hind paws plantar surface (to evaluate referred pain).
Each Von Frey monofilament was applied 5 times at the level of abdomen and 3 times at the level of each paw, in an ascending order of strength at interval of 5 sec. A stimulus-induced response was considered positive when the paw was sharply withdrawn, paw licking occurred, or the animal flinched upon removal of the filament.
• before CYP administration (in order to acquire basal values) • after CYP administration and before treatment, to verify the pathology (in order to acquire pre-treatment values) • after chronic treatment, about 18 hours after last administration of Compd. 1 (in order to acquire post-treatment values). • after chronic treatment, 2 hours after the last administration of Compd. 1 (in order to acquire post-treatment values after chronic+acute administration)
Compd. 1 or vehicle was administered p.o. to animals twice daily (according to the pharmacokinetic profile of the compound) for 6 days, starting from 24 hours after last treatment with CYP, when painful symptoms were well established. Nociceptive hypersensitivity was evaluated about 18 hours after the last administration of Compd. 1 (or vehicle) in order to evaluate the effect of chronic administration, or a further dosage of compound was administered and evaluation carried out 2 hours thereafter, in order to compare with acute protocol, described in Example 1.

[2] = test system: CYP-induced visceral pain; assay: Acute administration in CYP-induced visceral pain in rats (Von Frey mechanical threshold); format: in vivo, rat; details: 2 hours after administration, versus pre-treatment
Description: Female Sprague Dawley rats (Crl:CD(SD)BR, 250-350 g) from Charles River Italy were used in these experiments. Animals were housed with free access to food and water and maintained on a forced 12 hours light-dark cycle at 22-24° C. for at least one week before the experiments were carried out. The animals were handled according to internationally accepted principles for care of laboratory animals (E.E.C. Council Directive 86/609, […]. 18, 1986). Cyclophosphamide, 75 mg/kg i.p. for 3 times, every 3rd day, was dissolved in distilled water and administered to animals by i.p. route (volume 5 mL/kg). Appropriate weight of Compd. 1 or Compd. 2 was dissolved in saline, all doses of test compounds were administered by oral gavage (volume 2 mL/kg). On the day of the experiment, each rat was placed individually in a clear plastic testing box with a grid floor and allowed to acclimatize for at least 10 min. Visceral sensitivity in response to mechanical stimuli was determined using Von Frey monofilaments (1-2-4-8-15-26-60-100 g) applied in the lower abdominal area (close to the urinary bladder) and on both hind paws plantar surface (to evaluate referred pain). Each Von Frey monofilament was applied 5 times at the level of abdomen and 3 times at the level of each paw, in an ascending order of strength at interval of 5 sec. A stimulus-induced response was considered positive when the paw was sharply withdrawn, paw licking occurred, or the animal flinched upon removal of the filament. Behavioral testing on animals was performed at 3 different times: • before CYP administration (in order to acquire basal values) • after CYP administration, before treatment with the test compound, to verify the pathology (in order to acquire pre-treatment values) • after CYP administration, after treatment (in order to acquire post-treatment values) […] The test was performed in blind. Compd. 1 and Compd. […]

[3] = test system: CYP-induced cystitis; assay: Cystometrographic recordings in conscious rats with CYP-induced cystitis; format: in vivo, rat; details: 24 hours after CYP 175 mg/kg i.p.
Description: Female Sprague Dawley rats (Crl:CD(SD)BR, 250-350 g bw) from Charles River Italy were used in these experiments. Animals were housed with free access to food and water and maintained on a forced 12 hours light-dark cycle at 22-24° C. for at least one week before the experiments were carried out.
Rats, anaesthetized with equithensin solution (2 ml/kg i.p.), were placed in a supine position and an approximately 10 mm midline incision was made in the shaved and cleaned abdominal wall. The urinary bladder was gently freed from adhering tissues, emptied and then cannulated, via an incision at the dome, with a polyethylene cannula (Portex, ID 0.58 mm, OD 0.96 mm), which was permanently sutured with silk thread. The cannula was exteriorized through a subcutaneous tunnel in the retroscapular area, where it was connected with a plastic adapter, in order to avoid the risk of removal by the animal.
For drugs testing, rats were utilized one day after catheter implantation at about 24 hours after administrations CYP.
On the day of the experiment, the rats (fasted overnight) were placed in Bollman's cages; after a stabilization period of 20 min, the free tip of the cannula was connected by a T-shape tube to a pressure transducer and to a peristaltic pump for a continuous infusion of saline solution (room temperature) into the urinary bladder, at the constant rate of 0.05 ml/min. This procedure, termed cystometry, allows the detection of continuous cycles of filling and voiding of the bladder named cystometrograms.
From the cystometrograms acquired by the Biopac System and recorded on a PC the Bladder Volume Capacity (BVC) parameter was calculated as volume capacity, defined as volume (in ml) infused into the bladder and necessary to induce detrusor contraction followed micturition.
Basal BVC was evaluated as mean values from the cystometrograms recorded in 30-60 minutes of time prior the treatment (“BASAL”). Then the bladder infusion was stopped, the animals were treated orally with the test compound or vehicle and, after restarting continuous bladder filling with saline for 4 or 5 hours, BVC values after administration were collected.
BVC parameters were recorded from the cystometrogram over a 4/5 hours period post-dose.

[4] = test system: CXCR1/CXCR2; details: cited from earlier work
[5] = test system: CYP-induced visceral pain; assay: Chronic preventive treatment in CYP-induced visceral pain model in rats; comparison with Mesna; format: in vivo, rat; details: 12.5 mg/kg i.p. several times a day for 3 days
Description: The effect of chronic preventive administration of Compd. 1 in a visceral pain model induced by repeated administration of cyclophosphamide (CYP) in conscious rats was evaluated.
The oral dose of 7 mg/kg of Compd. 1 was chosen on the basis of previous evaluations. Compd. 1 or vehicle was orally administered to animals twice daily (according to the PK profile of the molecule) for 7 days. Mesna_or vehicle was intraperitoneally administered several times a day for 3 days (when CYP was administered).
Repeated treatment with CYP (75 mg/kg i.p. for 3 times, every 3rd day), induced a strong decrease in withdrawal thresholds to noxious stimulus measured at the level of low abdomen and hind-paws. Nociceptive hypersensitivity was evaluated. In the control group, nociceptive thresholds of abdomen and hind-paws were not altered after the treatment with vehicle.
Behavioral testing was performed at 4 different times: • before CYP administration (in order to acquire basal values) • after CYP administration and before treatment with the tested compound, to verify the pathology (in order to acquire pre-treatment values) • after treatment, 42 or 48 hours from the last administration of Compd. 1 or Mesna.

[6] = test system: CYP-induced cystitis; assay: Microscopic examination of urinary bladders after chronic preventive administration; format: in vivo, rat; details: preventive Mesna treatment
Description: At the end of the study, the urinary bladders were opened, placed in 10% buffered formalin and stored at room temperature until completion of hystomorphological analysis (see Example 6 below).
At the end of the efficacy study of chronic preventive administration, the urinary bladders were opened, placed in 10% buffered formalin and stored at room temperature until hystomorphological analysis.
Treatment with Compd. […] 1.

NCC1(CC(=O)O)CCCCC1 [gabapentin, reference compound]
antinociceptive effect [1]: partial maximum antinociceptive effect

C[C@@H](C(=O)NS(C)(=O)=O)c1ccc(OS(=O)(=O)C(F)(F)F)cc1 [Compd. 2, R(−)-2-[(4′-trifluoromethanesulfonyloxy)phenyl]-N-methanesulfonyl propionamide]
mechanical threshold, abdomen and hind paws ([2]; 10 mg/kg p.o.): statistically significant increase in mechanical threshold only in the abdomen | mechanical threshold, abdomen and hind paws ([2]; 30 mg/kg p.o.): statistically significant increase in mechanical threshold in both the abdomen and paws area | bladder volume capacity (BVC) ([3]; 20 mg/kg oral): showed efficacy on BVC | bladder volume capacity (BVC) ([3]; 30 mg/kg oral): showed efficacy on BVC | CXCR1/CXCR2 inhibition [4]: potent and selective dual CXCR1/CXCR2 non-competitive allosteric inhibitor

O=S(=O)(O)CCS [Mesna, 2-mercaptoethene sulfate, reference compound]
CYP-induced nociceptive behavior [5]: did not produce a reduction of CYP-induced nociceptive behavior | protective effect on the CYP-induced cystitis [6]: did not exert any protective effect

— US12150933B2, “IL-8 inihibitors for use in the treatment of some urological disorders” (DOMPÉ FARMACEUTICI S.P.A., priority 2015, dated 2024)
